The subject of one series is HRT-18 cells. Description: Intracellular accumulation of macrolides in HRT-18 cells. The series is classed as in vitro ADME, human. Conditions: HRT-18 cells, 10 μg/mL antibiotic. The procedure:
HRT-18 cells, in 6 cm tissue cultures dishes, were incubated in the presence of 0.5, 5 or 50 μg/mL tylvalosin. After 4 h, two dishes for each tylvalosin concentration and two dishes without antibiotic were removed from the incubator. A sample of medium (about 1 mL) was removed, placed in a labelled Eppendorf tube and stored at −20° C. The rest of the medium was then removed. Each of the cell monolayers was washed twice in PBS, using approximately 5 mL for each wash. The plunger from a 2 mL plastic syringe was used to gently scrape off the cells. PBS (500 μL) was added to the dish and the cells gently removed into this medium, using a micropipette. The sample was then placed in an Eppendorf tube and centrifuged at 8000×g in a bench centrifuge (Biofuge pico, Heraeus instruments) for 13 sec. An obvious cell pellet formed. The supernatant was removed using a micropipette and the cell material was stored at −20° C. in a labelled Eppendorf tube. After approximately 24 h the remaining tissue culture dishes were removed from the incubator and treated as described above for the 4 h samples. All the samples, including the 4 h samples, were then stored at −70° C.
HRT-18 cells were prepared as described above and used at passage 42. Stock solutions of antibiotics (either tylvalosin, tylosin or tilmicosin) were diluted in growth media and 10 μg/mL each antibiotic was added to the confluent cell monolayers. The cells were incubated at 37° C. in a 5% CO2 atmosphere for either 4 h or 24 h. The media and cells were harvested and tested for antibiotic, as described above.
(§1) All the supernatant and cell samples were transported frozen (at approximately −20° C.) to York Bioanalytical Solutions (York, England) for analysis. Briefly, 0.25 g of buffer (RPMI medium containing 10% FCS) was weighed into a polypropylene tube. A 50 μL volume of the appropriate working solution was added to the quality control (QC) samples. Methanol (50 μL) was added to each blank sample used for preparation of calibration standards, recovery samples and reagent blanks. A 2.5 mL volume of 0.1 M phosphate buffer was added to each sample, vortex mixed for approximately 1 min and then centrifuged at 3220×g for 10 min at 4° C.
(§2) For the liquid-liquid clean-up phase, an aliquot (100 μL) of the supernatant was transferred to a polypropylene tube. The pH was adjusted to pH 8-8.5 by the addition of 0.1 M NaOH, and vortex mixed. Ethyl acetate (5 mL) was added and after capping, the whole mixture was shaken for 10 min and then centrifuged at 3220×g for 10 min at 4° C.
(§3) Ammonium acetate (20 mM; pH native)—formic acid, 1000:3, v/v (100 μL) was added to each well in a 2 mL polypropylene collection plate. An aliquot of the ethyl acetate mixture (100 μL) was transferred to the polypropylene collection plate and evaporated under nitrogen (40° C.) until the ethyl acetate was fully evaporated whilst the ammonium acetate remained. Methanol (100 μL) was added to each well, excluding the calibration standards.
(§4) To each well containing a calibration standard, 100 μL of the appropriate calibration working solution was added. Samples were then vortex mixed for at least 10 min and submitted for liquid chromatography with tandem mass spectrometric analysis. The method stated was applicable to the samples of media (and the calibration standards and quality control samples).
(§5) For the cells, the sample tubes were weighed, and 100 μL of acetonitrile was added. The samples were vortex mixed for 10 sec, then centrifuged at 10285×g at 4° C. for 5 min. The sample was transferred to a polypropylene tube. The original sample tube was washed with 0.1 M phosphate buffer (1 mL). This was transferred to the polypropylene tube. A second wash of 1 mL was made, then a final wash of 0.5 mL. The polypropylene tube was now at the same stage as the end of the liquid extraction, but with the cells present rather than media. This was then taken through the sample preparation as described above. […]

In a further series the test system is Caco-2 cells. Description: Intracellular accumulation and trans-epithelial transport in polarised Caco-2 cells. Conditions: Caco-2, 10 μg/mL, apical administration. Type of series: in vitro ADME, human. On the procedure:
Caco-2 cells were seeded at a density of 0.8×10^6 cells per well of a Transwell Clear filter 6 well plate, 0.4 μm pore size. The cells were incubated with 2 mL medium in both apical and basolateral chambers. This medium was replaced every 2 days for 10-14 days. Transepithelial resistance was measured using Millicell ERS apparatus (Millipore) at day 7, 10 and/or 14 in order to identify when the cells had become polarised. Readings of >1000 Ω were indicative of polarised cells. […]
as §1, §2, §3, §4
(§6) For the cells, the sample tubes were weighed, and 100 μL of acetonitrile was added. The samples were vortex mixed for 10 sec, then centrifuged at 10285×g at 4° C. for 5 min. The sample was transferred to a polypropylene tube. The original sample tube was washed with 0.1 M phosphate buffer (1 mL). This was transferred to the polypropylene tube. A second wash of 1 mL was made, then a final wash of 0.5 mL. The polypropylene tube was now at the same stage as the end of the liquid extraction, but with the cells present rather than media. This was then taken through the sample preparation as described above. The original sample tubes were allowed to dry (i.e. any remaining solvent evaporated off) and were then reweighed to determine the weight of cells in the sample, to allow the concentration per gram of cells to be determined.

In the next series the test system is LLC-PK1 cells. Nature of the series: Intracellular accumulation in pig kidney epithelial cells. The series is classed as in vitro ADME. Conditions: LLC-PK1, 10 μg/mL. On the procedure: LLC-PKI cells in 6 cm^2 plastic tissue culture dishes were incubated with 10 μg/mL of the different macrolides. Cells and medium were harvested as described above at 30, 75 and 120 min.
as §1, §2, §3, §4, §6

A further series has as its system pig white blood cells. Nature of the series: Intracellular accumulation in pig white blood cells. Type of series: in vitro ADME. On the procedure:
(§7) Pig blood was collected in Heparin-coated BD vacutainers (6). 20 mL of blood and 30 mL of phosphate buffered saline (PBS) were mixed in a 50 mL conical centrifuge tube. This was repeated in order to obtain 3 such tubes. The mixtures were centrifuged for 10 min at 2050×g. The white blood cells, together with some red blood cells below, were harvested into a 50 mL conical centrifuge tube. PBS was added to about 50 mL. A 63% solution of Percoll was made as follows: 6.3 mL Percoll (Sigma), 1.0 mL 1.5 M NaCl, 2.7 mL H2O. 10 mL of 63% Percoll was added to each of two 50 mL conical centrifuge tubes. 25 mL of the resuspended white blood cells were carefully layered on top of the each of the Percoll solutions. A sharp interface was produced. The material was centrifuged at 3000×g for 10 min. […] The white blood cells were harvested in PBS (50 mL) and centrifuged at 500×g for 10 min. The cell pellet was resuspended in medium (Glasgow minimum essential medium containing penicillin and streptomycin). A viable cell count was made using trypan blue. The same method used for isolation of pig WBCs was used for the chicken WBCs, with the exception that heparin (100 I.U./mL) was prepared and mixed with an equal volume of chicken whole blood.
Cells were incubated with 10 mg/mL of each antibiotic. All tubes were placed on a rotary mixing machine, at 37° C. Supernatant and cell samples were harvested at the times described in the figure legends. Duplicate samples were used for each antibiotic for each time point.
as §1, §2, §3, §4, §5

In series [1] the test system is chicken white blood cells. Description: Intracellular accumulation in chicken white blood cells. The series is classed as in vitro ADME. The conditions noted are these: chicken white blood cells, 10 μg/mL. On the procedure:
as §7
All tubes were placed on a rotary mixing machine, at 37° C. Supernatant and cell samples were harvested at the times described in the figure legends. Duplicate samples were used for each antibiotic for each time point.
as §1, §2, §3, §4, §5

A further series relates to PRRSV. Conditions: has been shown; cited from earlier work.
The test system of series [2] is VR2332 (US strain of PRRSV). Nature of the series: VR2332 (US strain of PRRSV) entry assay in MA104 cells (Example 10). The conditions noted are these: 4 h pretreatment, moi 10, overnight.

Turning to `CC[C@H]1OC(=O)C[C@@H](O)[C@H](C)[C@@H](O[C@@H]2O[C@H](C)[C@@H](O)[C@H](N(C)C)[C@H]2O)[C@@H](CCN2C[C@H](C)C[C@H](C)C2)C[C@@H](C)C(=O)/C=C/C(C)=C/[C@@H]1CO[C@@H]1O[C@H](C)[C@@H](O)[C@@H](OC)[C@H]1OC` (single isomer, unassigned) [tilmicosin, reference compound], the average intracellular concentration with HRT-18 cells (4 h) was found to be 7.24 μg/mg cells; in the series with HRT-18 cells (24 h), 32.45 μg/mg cells; in the series on Caco-2 cells (120 min) it was 8.6 μg/mg cells; in the series on Caco-2 cells (240 min), 16.05 μg/mg cells; in the series with LLC-PK1 cells (75 min) it was 4.98 μg/mg cells; with pig white blood cells (10 min), 31.25 μg/mg cells. In series [1] (15 min), the average intracellular concentration is listed as 37.1 μg/mg cells. Further, the figures for the “intracellular:extracellular ratio” value with HRT-18 cells (4 h), in the series on HRT-18 cells (24 h) and in the series on LLC-PK1 cells (120 min) were 1.32 fold, 4.64 fold and 1.7, respectively. Also, in the series with Caco-2 cells (240 min), the “basolateral chamber content as average % of the apical chamber value” is reported as 1.08%. The “intracellular:extracellular ratio (fold concentration)” value with Caco-2 cells (240 min) came to 2.5 fold. Besides, the “average intracellular:extracellular ratio (IC:EC)” value in the series on pig white blood cells (10 min) is listed as 4.33; in the series with pig white blood cells (10 min, listed as Tilmicosin) it was 4. Besides, the intracellular concentration with pig white blood cells (20 min) is recorded as 36 μg/mg cells; in series [1] (60 min), 71.3 μg/mg cells. In addition, the “toxicity in cell culture assays of antiviral potency” value with cell culture is listed as “much more toxic than tylvalosin”. For the same molecule, the “effect on PRRSV” value with PRRSV is “effective”. Also, the “inhibition of VR2332 infection” value in series [2] is “partial inhibition”.

The record behind these values is US9649324B2, “Use of tylvalosin as antiviral agent” (ECO ANIMAL HEALTH LIMITED, priority 2006, dated 2017).
